Results from US5756462A, “Pore forming peptides from Geolycosa riogrande” (priority 1996, dated 1998).
“Also recorded” adds a separate entry of the source.

Key:
Type in all cases: cell-based
HL-60 cells [1] = assay: Mobilization of intracellular Ca2+ after pertussis toxin pretreatment; details: pretreatment 20 hrs with 100 ng/ml pertussis toxin
Method: Increases in [Ca^2+ ]i arising from the mobilization of intracellular Ca^2+ were inhibited by pretreatment for 20 hrs with 100 ng/ml pertussis toxin (PTx).

HL-60 cells [2] = tested on: HL-60 cells
Method: Uke the effect of many other pore formers, the effects of these peptides on EB uptake were augmented when the total extracellular divalent cation concentration was reduced to 0.1 mM and inhibited when extracellular Mg^2+ was increased from 1 to 5 mM.
The ability of Geolycosa 17 to form pores in membranes was tested in T3 fibroblasts, parathyroid cells, and differentiated and undifferentiated HL60 cells. Pore formation was assessed by measuring the permeability of the cells to ethidium bromide (EB, MW 394). Concentrations of Geolycosa 17 greater than 7.5 μM increased EB uptake in all cells tested.

[3] = tested on: HL-60 cells differentiated with dibutryl cAMP; assay: Mobilization of intracellular Ca2+ in fura-2 loaded differentiated HL-60 cells; details: differentiated HL-60 cells loaded with fura-2
Method: The three peptides of the present invention isolated from the venom of the spider Geolycosa riogrande, designated Geolycosa 17, 15a and 15b, contain linear sequences of 25 (Geolycosa 17) or 27 (Geolycosa 15a and 15b) amino acids, lack cysteine, and are enriched in lysine. […] When tested at concentrations of 0.5 to 2 μM, all three peptides caused rapid and transient increases in [Ca^2+ ]i that persisted in the absence of extracellular Ca^2+ but were blocked when cellular stores of Ca^2+ were depleted by pretreatment with ionomycin.

Row | Molecule | effect of PTx pretreatment on mobilization of intracellular Ca2+ (HL-60 cells [1]) | EB uptake / pore formation at concentrations effective in mobilizing intracellular Ca2+ (HL-60 cells [2]) | permeabilization of cells indexed by uptake of ethidium bromide (EB) (HL-60 cells [2]) | rank order of potency for causing permeabilization of HL-60 cells (HL-60 cells [2]) | EC50 (HL-60 cells [2]; EB uptake, read-out: EC50 for causing pore formation) [µM] | mobilization of intracellular Ca2+ [3] | potency relative to mastoparan (HL-60 cells [2]) | effect of PTx on pore formation (HL-60 cells [2]; pertussis toxin pretreatment) | EB uptake at slightly higher concentrations than those mobilizing Ca2+ (HL-60 cells [2]) | potency relative to Geolycosa 15a and Geolycosa 17 (HL-60 cells [2])
1 | Nc1ncnc2c1ncn2[C@@H]1O[C@H](COP(=O)(O)OP(=O)(O)OP(=O)(O)O)[C@@H](O)[C@H]1O [ATP, reference compound] | blocked | – | – | – | – | – | – | – | – | –
2 | CC[C@H](C)[C@H](NC(=O)CN)C(=O)NCC(=O)N[C@@H](C)C(=O)N[C@H](C(=O)N[C@@H](CC(C)C)C(=O)N[C@@H](CCCCN)C(=O)N[C@H](C(=O)N[C@@H](CC(C)C)C(=O)N[C@H](C(=O)N[C@H](C(=O)NCC(=O)N[C@@H](CC(C)C)C(=O)N1CCC[C@H]1C(=O)N[C@@H](C)C(=O)N[C@@H](CC(C)C)C(=O)N[C@H](C(=O)N[C@@H](CO)C(=O)N[C@@H](Cc1c[nH]c2ccccc12)C(=O)N[C@H](C(=O)N[C@@H](CCCCN)C(=O)N[C@@H](CCCNC(=N)N)C(=O)N[C@@H](CCCCN)C(=O)N[C@@H](CCCNC(=N)N)C(=O)N[C@@H](CCC(N)=O)C(=O)N[C@@H](CCC(N)=O)C(N)=O)[C@@H](C)CC)[C@@H](C)CC)[C@@H](C)O)[C@@H](C)O)C(C)C)C(C)C [melittin, reference compound] | – | caused significant pore formation | permeabilized HL-60 cells | melittin>Geolycosa 15b>Geolycosa 17=Geolycosa 15a>mastoparan | ~0.25 | caused the mobilization of intracellular Ca^2+ | – | – | – | –
3 | Geolycosa 15a (KIKWLKAMKSIAKFIAKKQMKKHLGGE) | blocks | even less prone to cause increases in EB uptake | permeabilized cells | melittin>Geolycosa 15b>Geolycosa 17=Geolycosa 15a>mastoparan | – | mobilize intracellular Ca^2+ | about twice as potent | without effect | – | –
4 | Geolycosa 15b (KIKWFKTMKSIAKFIAKEQMKKHLKGE) | failed to affect | little uptake of EB | permeabilized cells | melittin>Geolycosa 15b>Geolycosa 17=Geolycosa 15a>mastoparan | – | mobilize intracellular Ca^2+; also recorded: caused the mobilization of intracellular Ca^2+ | – | – | a large uptake of EB | about twice as potent
